Laboratory results taken from patent publication US4371544A, “Pharmaceutical composition containing 1,1,3,5-substituted biuret compound” (Taiho Pharmaceutical Company Limited, priority 1979, dated 1983).
Like-named read-outs stand apart in the source and are kept apart here.

Experiments:
ddy strain of male mice [1] = assay: Acute toxicity (oral, mice, 7 days observation); assay type: in vivo
Description: (§1) Next, several tests for determining the pharmacological properties, in that acute toxicity, anti-pyretic activity, analgesic activity and anti-inflammatory activity of the present 1,1,3,5-substituted biuret compounds of the formula (1) were conducted and the test results are shown in Table (2). In the tests, each compounds to be tested was used as a suspension in 0.25% carboxymethylcellulose solution. Methods for testing are explained as follows:
The ddy strain of male mice (body weight, 20-25 g) were used as test animals. The mice were fasted overnight and the compound to be tested was administered orally. […] The lethal dose (mg/kg, body weight) of the test compound was determined in connection with the death number of mice/the number of mice tested. In Table 2, the values indicated with Δ marks are 50% lethal dose, LD50 (mg/kg, body weight).

ddy strain of male mice [2] = assay: Analgesic activity, acetic acid-induced stretching method; assay type: in vivo, mouse (ddy); details: for inhibition in vivo at 200 mg/kg / inhibition in vivo at 100 mg/kg / ED50: Mus musculus; for inhibition in vivo at 200 mg/kg / inhibition in vivo at 100 mg/kg: read-out: Analgesic activity, acetic acid-induced stretching method, inhibitory ratio; for ED50: oral, Δ mark, range in parentheses
Description: as §1
According to the method reported by Koster et al., [Fed. Proc., Vol. 18, pp. 412 (1959)], the ddy strain of male mice (body weight, 20-25 g) were used as test animals. The mice were fasted overnight, 100 mg/kg body weight of the test compound was administered orally, then 1 hour after the administration, 0.2 ml of 0.7% acetic acid solution was injected intraperitoneally. The acetic acid-induced stretching symptom of mouse was observed. Analgesic activity of the test compound was calculated as the inhibitory ratio (%). In Table 2, the values in parentheses show the data obtained from the test by using the dosage other than 100 mg/kg body weight. Further, the values indicated with Δ marks show 50% effective dose, ED50 (mg/kg body weight).

ddy strain of male mice [3] = assay: Analgesic activity, Haffner method (morphine threshold dose, clamp); assay type: in vivo, mouse (ddy); details: for inhibition in vivo at 100 mg/kg / inhibition in vivo at 200 mg/kg / ED50: Mus musculus; for inhibition in vivo at 100 mg/kg / inhibition in vivo at 200 mg/kg: read-out: Analgesic activity, Haffner method, inhibitory ratio; for inhibition in vivo at 200 mg/kg: 200 mg/kg oral; for ED50: oral, Δ mark, range in parentheses
Description: as §1
According to the modified method reported by Fujimura et. al., [Bulletin of the Institute for Chemical Research, Kyoto University, No. 25, pp. 36 (1951)], the ddy strain of male mice (body weight, 20-25 g) were used as test animals. The mice were fasted overnight, 100 mg/kg body weight of the test compound was administered orally, then 45 minutes after the administration, the threshold amount (1.5-2.5 mg/kg body weight) of morphine hydrochloride was injected subcutaneously. Then 1-hour pain reaction of the mouse caused by a clamp was observed. Analgesic activity of the test compound was calculated as the inhibitory ratio (%). In Table 2, the values in parentheses show the data obtained from the test by using the dosage other than 100 mg/kg body weight. Further, the values indicated with Δ marks show 50% effective dose, ED50 (mg/kg body weight).

[4] = tested on: Wistar strain of male rats; assay: Anti-pyretic activity (dry-yeast-induced fever); assay type: in vivo, rat (Wistar); details: oral (dose not given), up to 4 hours after administration
Description: as §1
According to the method reported by Tanabe [Folia Pharmacologia Japonica, Vol. 73, pp. 803 (1977)], the Wistar strain of male rats (150-180 g, body weight) were used as test animals. The rats were fasted overnight, and 1 ml/100 g (body weight) of 10% dry-yeast suspension were subcutaneously injected on the back of the rats. Five hours after the injection, the test compound was administered orally, then the body temperature of the rat was measured at time sequences. Anti-pyretic activity of the test compound was determined as the FI (febril index) by integrating pyrogenetic curve up to 4 hours after the administration of the test compound with time, and indicated as inhibitory ratio (%) shown by the following formula, [formula]

[5] = tested on: Wistar strain of male rats; assay: Anti-inflammatory activity (acute carrageenin-induced inflammatory test, hindpaw); assay type: in vivo, rat (Wistar); details: for inhibition in vivo at 100 mg/kg / inhibition in vivo at 200 mg/kg: Rattus norvegicus, read-out: Anti-inflammatory activity, inflammation inhibitory ratio
Description: as §1
According to the method of acute carrageenin-induced inflammatory test [Folia Pharmacologia Japonica, Vol. 56, pp. 575 (1960)], the Wistar strain of male rats (body weight, 150-180 g) were used as test animals. The rats were fasted overnight, 100 mg/kg body weight of the test compound was administered orally, then 1 hour after the administration, 0.1 ml of 1% carrageenin solution, as the inflammation inducing agent, was injected subcutaneously to the hindpaw of the rat and the volume of the hindpaw was measured at time sequences, Anti-inflammatory activity of the test compound was calculated as inflammation inhibitory ratio (%) at 3 hours after the injection of inflammation inducing agent.

[6] = 100 mg/kg oral, 1 hour before acetic acid
[7] = 100 mg/kg oral, 45 minutes before morphine hydrochloride
[8] = 100 mg/kg oral, 3 hours after carrageenin

Structure (SMILES)	Acute toxicity: death number of mice/number of mice tested (ddy strain of male mice [1]; 2000 mg/kg oral)	inhibition in vivo at 100 mg/kg (ddy strain of male mice [3]; [7]) [%]	Anti-pyretic activity, inhibitory ratio (febril index) [4] [%]	Anti-inflammatory activity, inflammation inhibitory ratio [5, 8] [%]	inhibition in vivo at 200 mg/kg (ddy strain of male mice [3]) [%]	inhibition in vivo at 100 mg/kg ([5]; po, 3 h) [%]	ED50 (ddy strain of male mice [2]) [mg/kg]	ED50 (ddy strain of male mice [3]) [mg/kg]	other results
CCN(C(=O)Nc1ccccc1)C(=O)N(C)C [compound 36, 1,1-Dimethyl-3-ethyl-5-phenylbiuret]	3/4	62.5	12	23	–	–	–	–	Acute toxicity: death number of mice/number of mice tested (ddy strain of male mice [1]; 1000 mg/kg oral): 0/4; Analgesic activity, acetic acid-induced stretching method, inhibitory ratio (ddy strain of male mice [2]; [6]): 62.5%
CN(C)C(=O)N(C(=O)Nc1ccccc1)c1ccccc1 [Compound No. 42, 1,1-dimethyl-3,5-diphenylbiuret]	3/4	–	14	–	50	–	–	–	Acute toxicity: death number of mice/number of mice tested (ddy strain of male mice [1]; 1000 mg/kg oral): 0/4; inhibition in vivo at 200 mg/kg (ddy strain of male mice [2]; po): 62.5%; inhibition in vivo at 100 mg/kg [5, 8]: 34%
COc1ccc(NC(=O)NC(=O)N(C)C)cc1 [Compound No. 4, 1,1-Dimethyl-5-(4-methoxyphenyl)biuret]	0/4	50	–	–	–	43	–	–	inhibition in vivo at 100 mg/kg (ddy strain of male mice [2]; po): 75%
CN(C)C(=O)N(C)C(=O)Nc1ccccc1 [Compound No. 6, 1,1,3-trimethyl-5-phenylbiuret]	–	–	80	59	–	–	75	68	–
CCN(C)C(=O)NC(=O)Nc1ccccc1 [Compound No. 43, 1-ethyl-1-methyl-5-phenylbiuret]	0/4	–	–	–	12.5	–	–	–	inhibition in vivo at 100 mg/kg (ddy strain of male mice [2]; [6]): 50%; inhibition in vivo at 200 mg/kg ([5]; 200 mg/kg oral, 3 hours after carrageenin): 72%
CN(C)C(=O)N(C)C(=O)Nc1ccc(Br)cc1 [Compound No. 16, 1,1,3-Trimethyl-5-(4-bromophenyl)biuret]	–	–	103	–	–	–	60	74	Anti-inflammatory activity, inflammation inhibitory ratio ([5]; 100 mg/kg oral, (2 hours)): 48%
COc1ccc(NC(=O)N(C)C(=O)N(C)C)cc1 [Compound No. 23, 1,1,3-Trimethyl-5-(4-methoxyphenyl)biuret]	–	–	75	33	–	–	39	80	–
CN(C)C(=O)N(C)C(=O)NC1CCCCC1 [compound 35, 1,1,3-Trimethyl-5-cyclohexylbiuret]	–	–	–	–	–	24	–	–	Analgesic activity, acetic acid-induced stretching method, inhibitory ratio (ddy strain of male mice [2]; 200 mg/kg oral): 87.5%; Analgesic activity, Haffner method, inhibitory ratio (ddy strain of male mice [3]; [7]): 25%
O=C(NC(=O)N1CCCC1)Nc1ccccc1 [compound 67, 1,1-Tetramethylene-5-phenylbiuret]	0/4	37.5	–	–	–	33	–	–	inhibition in vivo at 100 mg/kg (ddy strain of male mice [2]; po): 50%
O=C(NC(=O)N1CCOCC1)Nc1ccccc1 [compound 71, 1,1-(3-Oxapentamethylene)-5-phenylbiuret]	–	–	–	–	50	–	–	–	Acute toxicity: death number of mice/number of mice tested (ddy strain of male mice [1]; mouse, in vivo): 0/4; inhibition in vivo at 200 mg/kg (ddy strain of male mice [2]; 200 mg/kg oral): 40%; inhibition in vivo at 200 mg/kg ([5]; po, 3 h): 23%
